From patent US12297349B2, “Transparent resin composition and transparent resin molded article” (Sony Group Corporation, priority 2016, dated 2025)

Assay: Dissolved amount (solubility) in pure water
Conditions: stirring for 30 minutes, filtering with 0.5 μm filter, insoluble matter measured
Method: The content of the water-insoluble organic sulfonic acid and/or the metal salt thereof is 0.01 to 3.0 pts·mass to 100 pts·mass of the aromatic polycarbonate resin. […] The dissolved amount per 100 g of pure water can be calculated by mixing 3 g of sample with 100 g of pure water, stirring for 30 minutes, and then filtering it with 0.5 μm filter to measure the insoluble matter.

Row | Compound | A dissolved amount (solubility)
1 | Cc1ccc(S(=O)(=O)[O-])cc1.[Na+] [b-3, sodium paratoluenesulfonic acid] | 24.0 g/100 g of pure water
2 | O=S(=O)([O-])C(F)(F)C(F)(F)C(F)(F)C(F)(F)F.[K+] [b-2, potassium perfluorobutanesulfonate] | 4.6 g/100 g of pure water
